In patent publication US11214547B2, “Crystalline Eltrombopag monoethanolamine salt form D” (F.I.S.—FABBRICA ITALIANA SINTETICI S.P.A., priority 2018, dated 2022):

Tests used:
[1] = Preliminary stability in water at RT (slurry, XRPD); assay type: physicochemical; conditions: XRPD at 1, 3, 6 and 24 h
Protocol: A preliminary test stability study in water at RT of 4 ETP monoethanolamine salt Forms was performed in order to observed possible crystalline transitions. A sample of each crystalline form was slurried in water at RT and periodically analysed by XRPD (1, 3, 6 and 24 h) in order to detect possible crystalline transformation.

[2] = Relative thermodynamic solubility in water at RT by HPLC; assay type: physicochemical; conditions: for Intensity test average: average of solubility tests #1 and #2, water; for Intensity test average / Solubility test #1 (area counts) / Solubility test #2 (area counts): RT; for Solubility test #1 (area counts) / Solubility test #2 (area counts): water, 24 h stirring, HPLC ETP peak area of saturated solution
Protocol: This suspension was stirred 24 h at RT in order to reach the equilibrium. Then, a sample was filtered and the resulting filtrate was analysed by HPLC by duplicate. The average peak area of ETP gave a relative value of the thermodynamic solubility of each form that can be compared with each other. The solids recovered after filtration were also analysed by XRPD to check that no crystalline phase transformation occurred during the slurring.
The following HPLC conditions were used to determine the relative solubility (due to their short analysis time and good response): • Column: C18 Zorbax Eclipse (XDB), 150×4.6 mm, 5 μm • Sample concentration: Saturated water solution of the ETP monoethanolamine salt • Mobile phase: ACN:MeOH:H2O (55:35:10) at pH=6.0+/−0.2 • Temperature: 27° C. • Flow rate: 1 mL/min • UV detector wavelength: 230 nm • Injection: 5 μL • Run time: 10 min
HPLC ETP peak area in each of the different forms analysed was measured in order to establish their relative solubility. The HPLC analyses were performed by duplicate for each ETP monoethanolamine salt.

[3] = cited from earlier work
[4] = Hygroscopicity study by DVS (Dynamic Vapour Sorption); assay type: physicochemical; conditions: 25° C.
Protocol: Hygroscopicity study was determined by DVS (Dynamic Vapour Sorption) with a Q5000 TA instrument. This is a gravimetric technique that measures how much water is absorbed or desorbed by a sample at different relative humidity (RH). At each RH, the sample mass must be allowed to reach gravimetric equilibrium (or surpassed time limit) before progressing to the next humidity level. Sorption and desorption isotherms were performed at 25° C. over a range of 0-95% RH. The samples gently milled were not previously dried but they were exposed to 0% RH until a stable weight was reached before starting the DVS cycle. This equilibration step allows possible adsorbed humidity to be eliminated.

[5] = Crystalline stability of Form D under accelerated ICH guideline conditions (XRPD); assay type: physicochemical
Source text: […] […] This sample was periodically analysed by XRPD in order to observe possible crystalline transformation or amorphization. Moreover, a sample of ETP monoethanolamine salt Form D stored on a XRPD silicon holder was exposed in a climatic chamber. It is worth noting that these stability conditions are harsher than standard stability conditions due to the high surface of exposition of the solid stored on the XRPD silicon holder. The samples were periodically analysed by XRPD to observe possible crystalline transformation.

## CC1=NN(c2ccc(C)c(C)c2)C(=O)/C1=N\Nc1cccc(-c2cccc(C(=O)O)c2)c1O [Form D1]
[1]
  crystalline stability slurried in water: remained stable 24 h
[2]
  Intensity test average: 2911
  Solubility test #1 (area counts): 2722 area counts
  Solubility test #2 (area counts): 3100 area counts

## CC1=NN(c2ccc(C)c(C)c2)C(=O)/C1=N\Nc1cccc(-c2cccc(C(=O)O)c2)c1O [Eltrombopag olamine]
[3]; at higher temperature endothermic reaction associated with degradation
  thermally stable up to: about 125 °C
[3]
  solubility in water: sparingly soluble in water

## CC1=NN(c2ccc(C)c(C)c2)C(=O)/C1=N\Nc1cccc(-c2cccc(C(=O)O)c2)c1O.NCCO [Form H2]
[4]; at 95% RH
  humidity adsorbed (water uptake): 0.6%
[1]
  crystalline stability slurried in water: remained stable 24 h
[2]
  Intensity test average: 2867
  Solubility test #1 (area counts): 3068 area counts
  Solubility test #2 (area counts): 2665 area counts

## CC1=NN(c2ccc(C)c(C)c2)C(=O)/C1=N\Nc1cccc(-c2cccc(C(=O)O)c2)c1O [Form D]
[4]; 0-95% RH
  hygroscopicity: not hygroscopic up to 85% RH
[1]
  crystalline stability slurried in water: remained stable 24 h
[2]
  Intensity test average: 8066
  Solubility test #1 (area counts): 7930 area counts
  Solubility test #2 (area counts): 8201 area counts
[2]; water at RT, ranking among the 4 forms
  relative solubility in water: most soluble form in water at RT
[5]; 14 weeks study period
  crystalline transformation by XRPD: polymorphic transition, hydrate formation or amorphization was not observed
[5]; climate chamber-75±5% RH, on XRPD sample holder
  time the crystalline form remains stable: at least 14 weeks
